Source: PMC11995724, “Antibiotic target discovery by integrated phenotypic and activity-based profiling of electrophilic fragments” (Cell chemical biology, 2025)
Converted amounts (≈) assume the structure as drawn.

Target: T1, Sf_PdxY (Shigella flexneri, UniProt Q83KY1)
T1 construct: gene pdxY; recombinant, N-terminal His-tag, pET28a(+), E. coli BL21(DE3), Ni-NTA and Superdex 75
T1 sequence (Q83KY1 1-287): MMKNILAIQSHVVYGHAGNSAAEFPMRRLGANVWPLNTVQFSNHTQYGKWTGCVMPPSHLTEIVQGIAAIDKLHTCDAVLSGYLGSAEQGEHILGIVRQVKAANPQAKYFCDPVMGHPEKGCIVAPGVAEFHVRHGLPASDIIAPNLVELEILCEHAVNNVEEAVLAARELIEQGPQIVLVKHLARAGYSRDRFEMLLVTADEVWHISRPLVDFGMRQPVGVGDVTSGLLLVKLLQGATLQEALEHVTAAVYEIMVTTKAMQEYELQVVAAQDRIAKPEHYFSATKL
Assay: in-gel fluorescence, competition with 5-TMRIA labelling
Type: binding
Conditions: covalent; 1.5 uM protein in PBS, 1 h, 22 °C

With `O=C(CCl)c1cn(-c2ccc(F)cc2)nn1` [10-F05] as the compound, how does the “in-gel fluorescence, competition with 5-TMRIA labelling” value read?
Its value is “preincubation with 10-F05 resulted in a dose-dependent decrease in 5-TMRIA labeling of these proteins”.

Test system: not listed separately
Assay: in vitro
Conditions: human, hek293t cells

With `O=C(CCl)c1cn(-c2ccc(F)cc2)nn1` [10-F05] as the compound, how does the viability at 48 h, 25 µM read?
Its viability at 48 h, 25 µM is 89.9%.

With `C=CCNC(=O)C(C#N)=CC=Cc1ccccc1` [9-J08, 2-cyano-5-phenyl-N-(prop-2-en-1-yl)penta-2,4-dienamide] as the compound, how does the viability at 48 h, 25 µM read?
Its viability at 48 h, 25 µM is 96.5%.

Which viability at 48 h, 25 µM does the source give for `Cc1cccc(Cl)c1CCCNC(=O)CCl` [7-F04, 2-chloro-N-[3-(2-chloro-6-methylphenyl)propyl]acetamide] here?
Its viability at 48 h, 25 µM is 0.614%.

Which viability at 48 h, 25 µM does the source give for `N#Cc1ccc2c(c1)CCN2C(=O)CCl` [5-N09, 1-(2-chloroacetyl)-2,3-dihydro-1H-indole-5-carbonitrile] here?
Its viability at 48 h, 25 µM is 0.856%.

Which viability at 48 h, 25 µM does the source give for `O=C(CCl)NCC1CCCCN1C(=O)C(F)(F)F` (stereo not shown) [5-C07, 2-chloro-N-{[1-(2,2,2-trifluoroacetyl)piperidin-2-yl]methyl}acetamide] here?
Its viability at 48 h, 25 µM is 1.83%.

With `Cc1ccc(C=C(C#N)C(=O)Nc2ccccc2Cl)s1` [9-C22, N-(2-chlorophenyl)-2-cyano-3-(5-methylthiophen-2-yl)prop-2-enamide] as the compound, how does the viability at 48 h, 25 µM read?
Its viability at 48 h, 25 µM is 107%.

Which viability at 48 h, 25 µM does the source give for `C=CC(=O)Nc1ccc(F)c(-n2nnnc2C)c1` [2-K11, N-[4-fluoro-3-(5-methyl-1H-1,2,3,4-tetrazol-1-yl)phenyl]prop-2-enamide] here?
The viability at 48 h, 25 µM was 195%.

Which viability at 48 h, 25 µM does the source give for `C=CC(=O)N1CC2(CCOCC2)C1c1ccco1` (stereo not shown) [1-D22, 1-[1-(furan-2-yl)-7-oxa-2-azaspiro[3.5]nonan-2-yl]prop-2-en-1-one] here?
Its viability at 48 h, 25 µM is 72.1%.

With `N#CC(=Cc1ccc(Cl)cc1Cl)C(N)=O` [8-H17, 2-cyano-3-(2,4-dichlorophenyl)prop-2-enamide] as the compound, how does the viability at 48 h, 25 µM read?
Its viability at 48 h, 25 µM is 93.6%.

Which viability at 48 h, 25 µM does the source give for `C=CC(=O)N1CCC(C(=O)N2CCCN(c3nccs3)CC2)CC1` [2-L20, 1-{4-[4-(1,3-thiazol-2-yl)-1,4-diazepane-1-carbonyl]piperidin-1-yl}prop-2-en-1-one] here?
The viability at 48 h, 25 µM was 90.1%.

For `CC(O)CN(Cc1ccc(Cl)c(F)c1)C(=O)CCl` (stereo not shown) [5-K12, 2-chloro-N-[(4-chloro-3-fluorophenyl)methyl]-N-(2-hydroxypropyl)acetamide], which viability at 48 h, 25 µM is on record?
The viability at 48 h, 25 µM was 0.478%.

Which viability at 48 h, 25 µM does the source give for `C=CC(=O)NCC1CS(=O)(=O)c2ccccc2O1` (stereo not shown) [3-N17, N-[(4,4-dioxo-2,3-dihydro-1,4lambda6-benzoxathiin-2-yl)methyl]prop-2-enamide] here?
Its viability at 48 h, 25 µM is 79.4%.

With `CC(Cl)C(=O)NCc1cc(C(F)F)nn1C` (stereo not shown) [6-H14, 2-chloro-N-{[3-(difluoromethyl)-1-methyl-1H-pyrazol-5-yl]methyl}propanamide] as the compound, how does the viability at 48 h, 25 µM read?
Its viability at 48 h, 25 µM is 108%.

With `CC(Cl)C(=O)N1CCN(CC(F)(F)F)CC1C(C)C` (stereo not shown) [7-C22, 2-chloro-1-[2-(propan-2-yl)-4-(2,2,2-trifluoroethyl)piperazin-1-yl]propan-1-one] as the compound, how does the viability at 48 h, 25 µM read?
Its viability at 48 h, 25 µM is 91.5%.

For `CC(Cl)C(=O)N1CCCC1c1cccc(N(C)C)c1` (stereo not shown) [7-A22, 2-chloro-1-{2-[3-(dimethylamino)phenyl]pyrrolidin-1-yl}propan-1-one], which viability at 48 h, 25 µM is on record?
Its viability at 48 h, 25 µM is 68.7%.

Which viability at 48 h, 25 µM does the source give for `C=CC(=O)NCC1CCN(c2ccccc2)C1` (stereo not shown) [3-B17, N-[(1-phenylpyrrolidin-3-yl)methyl]prop-2-enamide] here?
The viability at 48 h, 25 µM was 66.8%.

For `Cc1cc(CN(Cc2ccn(C)n2)C(=O)CCl)ccc1F` [5-G14, 2-chloro-N-[(4-fluoro-3-methylphenyl)methyl]-N-[(1-methyl-1H-pyrazol-3-yl)methyl]acetamide], which viability at 48 h, 25 µM is on record?
The viability at 48 h, 25 µM was 0.658%.

With `O=C(CCl)Nc1cc2c(cc1[N+](=O)[O-])OCCCO2` [4-O05, 2-chloro-N-(8-nitro-3,4-dihydro-2H-1,5-benzodioxepin-7-yl)acetamide] as the compound, how does the viability at 48 h, 25 µM read?
The viability at 48 h, 25 µM was 103%.

For `COc1ccc2cc(CN(C)C(=O)CCl)ccc2c1` [4-A19, 2-chloro-N-[(6-methoxynaphthalen-2-yl)methyl]-N-methylacetamide], which viability at 48 h, 25 µM is on record?
Its viability at 48 h, 25 µM is -0.134%.

With `C=CC(=O)Nc1sc2c(c1C(N)=O)CCCCC2` [1-F21, 2-(prop-2-enamido)-4H,5H,6H,7H,8H-cyclohepta[b]thiophene-3-carboxamide] as the compound, how does the viability at 48 h, 25 µM read?
The viability at 48 h, 25 µM was 113%.

For `CC(NC(=O)C(C#N)=Cc1ccc(C(F)(F)F)cc1)c1ccccc1` (stereo not shown) [9-L21, 2-cyano-N-(1-phenylethyl)-3-[4-(trifluoromethyl)phenyl]prop-2-enamide], which viability at 48 h, 25 µM is on record?
The viability at 48 h, 25 µM was 2.11%.

With `O=C(CCl)N1CCC(OCc2ccccc2)CC1` [4-H19, 1-[4-(benzyloxy)piperidin-1-yl]-2-chloroethan-1-one] as the compound, how does the viability at 48 h, 25 µM read?
The viability at 48 h, 25 µM was 0.757%.

For `N#CC(=Cc1ccc2c(c1)OCCO2)C(=O)NC1CCCCC1` [9-J19, 2-cyano-N-cyclohexyl-3-(2,3-dihydro-1,4-benzodioxin-6-yl)prop-2-enamide], which viability at 48 h, 25 µM is on record?
Its viability at 48 h, 25 µM is 118%.

Which viability at 48 h, 25 µM does the source give for `CN1C(=CC=C(C#N)C(=O)NCC2CCCO2)C(C)(C)c2ccccc21` (stereo not shown) [8-M04, 2-cyano-N-[(oxolan-2-yl)methyl]-4-(1,3,3-trimethyl-2,3-dihydro-1H-indol-2-ylidene)but-2-enamide] here?
Its viability at 48 h, 25 µM is 77.7%.

Which viability at 48 h, 25 µM does the source give for `COc1ccc([N+](=O)[O-])cc1NC(=O)C(C)Cl` (stereo not shown) [5-N14, 2-chloro-N-(2-methoxy-5-nitrophenyl)propanamide] here?
Its viability at 48 h, 25 µM is 96.3%.

For `CC(Cl)C(=O)NCCc1cccs1` (stereo not shown) [4-D14, 2-chloro-N-[2-(thiophen-2-yl)ethyl]propanamide], which viability at 48 h, 25 µM is on record?
The viability at 48 h, 25 µM was 111%.

With `COc1cccc(C=C(C#N)C(=O)Nc2ccccc2C(=O)O)c1` [9-G08, 2-[2-cyano-3-(3-methoxyphenyl)prop-2-enamido]benzoic acid] as the compound, how does the viability at 48 h, 25 µM read?
The viability at 48 h, 25 µM was 102%.

For `C=CC(=O)Nc1cccc2c1CCN2C(C)=O` [1-F05, N-(1-acetyl-2,3-dihydro-1H-indol-4-yl)prop-2-enamide], which viability at 48 h, 25 µM is on record?
Its viability at 48 h, 25 µM is 110%.

For `N#CC(=Cc1cc(F)ccc1F)C(=O)NC1CCCCC1` [8-G08, 2-cyano-N-cyclohexyl-3-(2,5-difluorophenyl)prop-2-enamide], which viability at 48 h, 25 µM is on record?
The viability at 48 h, 25 µM was 9.88%.

Which viability at 48 h, 25 µM does the source give for `C=CC(=O)NC1CC2(CCC(C(=O)O)CC2)C1` (stereo not shown) [2-I16, 2-(prop-2-enamido)spiro[3.5]nonane-7-carboxylic acid] here?
The viability at 48 h, 25 µM was 92.8%.

Test system: T2, Staphylococcus aureus SAD30
T2 construct: SAD30
Assay: microbe, parasite or virus in culture
Set-up: species or system bacteria in LB, TSB or NB; broth microdilution MIC, OD600, lowest concentration with no growth
Conditions: not given

For `O=C(CCl)c1cn(-c2ccc(F)cc2)nn1` [10-F05], which MIC is on record?
Its MIC is 10 µM (≈ 2.4 µg/mL).

Target: T3, Sf_FabH (Shigella flexneri, UniProt Q83RS8)
T3 construct: gene fabH; recombinant, N-terminal His-tag, pET28a(+), E. coli BL21(DE3), Ni-NTA and Superdex 75
T3 sequence (Q83RS8 1-317): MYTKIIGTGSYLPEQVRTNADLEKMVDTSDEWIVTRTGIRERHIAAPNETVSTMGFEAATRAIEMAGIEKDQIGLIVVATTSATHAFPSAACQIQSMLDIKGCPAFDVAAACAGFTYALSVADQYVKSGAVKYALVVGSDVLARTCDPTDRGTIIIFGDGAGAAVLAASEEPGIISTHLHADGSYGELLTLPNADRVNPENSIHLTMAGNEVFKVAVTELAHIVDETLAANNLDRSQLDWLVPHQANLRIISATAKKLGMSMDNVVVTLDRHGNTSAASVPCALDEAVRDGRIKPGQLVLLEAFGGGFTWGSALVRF
Assay: in-gel fluorescence, competition with 5-TMRIA labelling
Type: binding
Conditions: covalent; 1.5 uM protein in PBS, 1 h, 22 °C

For `O=C(CCl)c1cn(-c2ccc(F)cc2)nn1` [10-F05], which “in-gel fluorescence, competition with 5-TMRIA labelling” value is on record?
Its value is “preincubation with 10-F05 resulted in a dose-dependent decrease in 5-TMRIA labeling of these proteins”.

Target: T4, S. aureus FabH (Staphylococcus aureus, UniProt Q6GAU3)
T4 construct: recombinant, N-terminal His-tag, pET28a(+), E. coli BL21(DE3)
T4 sequence (Q6GAU3 1-313): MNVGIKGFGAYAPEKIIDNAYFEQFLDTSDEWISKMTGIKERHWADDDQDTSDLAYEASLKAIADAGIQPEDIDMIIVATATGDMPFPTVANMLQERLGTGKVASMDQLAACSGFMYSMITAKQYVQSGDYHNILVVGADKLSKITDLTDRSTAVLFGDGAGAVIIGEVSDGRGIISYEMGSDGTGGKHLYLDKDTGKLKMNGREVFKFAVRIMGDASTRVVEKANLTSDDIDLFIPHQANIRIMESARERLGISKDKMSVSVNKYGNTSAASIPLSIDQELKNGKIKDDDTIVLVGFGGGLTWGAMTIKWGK
Assay: in vitro targeting of purified protein (method not given)
Type: binding
Conditions: not given
Text: in vitro targeting of purified protein (method not told in the main text) on S. aureus FabH | The S. aureus FabH […] can also be targeted by 10-F05 in vitro

With `O=C(CCl)c1cn(-c2ccc(F)cc2)nn1` [10-F05] as the compound, how does the “in vitro targeting of purified protein (method not given)” value read?
The value was “The S. aureus FabH [...] can also be targeted by 10-F05 in vitro”.
